From patent publication US20040176350A1, “Carbapenem compound” (priority 2001, published 2004)

Test: oral absorption test in rats: plasma concentration of meropenem produced by hydrolysis, by HPLC
Assay type: in vivo
Details: 20 mg/kg oral, cilastatin 50 mg/kg pre-administered
Description: An enzyme inhibitor (cilastatin) (50 mg/kg) was pre-administered to rats (3 per group) and the compound of the present invention (compound of Example 1, 20 mg/kg) was orally administered. The plasma concentration of meropenem produced by hydrolysis was measure at 0.125, 0.25, 0.5, 1.0, 1.5, 2.0 and 3.0 hr by HPLC and the area under plasma concentration-time curve (AUC) was determined.

Q: Which results are given for `CCCC(=O)OCOC(=O)N1C[C@@H](SC2=C(C(=O)OCOC(=O)C(C)(C)C)N3C(=O)[C@H]([C@@H](C)O)[C@H]3[C@H]2C)C[C@H]1C(=O)N(C)C` [Example 1, pivaloyloxymethyl (1R,5S,6S)-2-[(3S,5S)-(5-N,N-dimethylaminocarbonyl-1-butyryloxymethyloxycarbonyl)-pyrrolidin-3-ylthio]-6-[(1R)-1-hydroxyethyl]-1-methylcarbapen-2-em-3-carboxylate]?
A: AUC0-3 hr (area under plasma concentration-time curve of meropenem): 5060 ng·h/mL; Average plasma concentration (meropenem in plasma at 0.125 hr): 0.62 µg/mL; Average plasma concentration (meropenem in plasma at 0.25 hr): 1.31 µg/mL; Average plasma concentration (meropenem in plasma at 0.5 hr): 2.31 µg/mL; Average plasma concentration (meropenem in plasma at 1.0 hr): 2.59 µg/mL; Average plasma concentration (meropenem in plasma at 1.5 hr): 2.27 µg/mL; Average plasma concentration (meropenem in plasma at 2.0 hr): 1.56 µg/mL; Average plasma concentration (meropenem in plasma at 3.0 hr): 0.55 µg/mL
